In paper PMC6504641 (Chembiochem : a European journal of chemical biology, 2018) one finds IC50 data, which are given here for 1 compound.

What is called IC50 is the concentration needed to halve the response being measured.

This assay has as its target BRAF (Homo sapiens, UniProt P15056). Briefly: ELISA kinase assay, phospho-MEK1 readout. In kind it is biochemical. A general note: In an ELISA, binding on a coated surface is turned into a signal by an enzyme label.

BRAF, sequence (P15056 whole entry): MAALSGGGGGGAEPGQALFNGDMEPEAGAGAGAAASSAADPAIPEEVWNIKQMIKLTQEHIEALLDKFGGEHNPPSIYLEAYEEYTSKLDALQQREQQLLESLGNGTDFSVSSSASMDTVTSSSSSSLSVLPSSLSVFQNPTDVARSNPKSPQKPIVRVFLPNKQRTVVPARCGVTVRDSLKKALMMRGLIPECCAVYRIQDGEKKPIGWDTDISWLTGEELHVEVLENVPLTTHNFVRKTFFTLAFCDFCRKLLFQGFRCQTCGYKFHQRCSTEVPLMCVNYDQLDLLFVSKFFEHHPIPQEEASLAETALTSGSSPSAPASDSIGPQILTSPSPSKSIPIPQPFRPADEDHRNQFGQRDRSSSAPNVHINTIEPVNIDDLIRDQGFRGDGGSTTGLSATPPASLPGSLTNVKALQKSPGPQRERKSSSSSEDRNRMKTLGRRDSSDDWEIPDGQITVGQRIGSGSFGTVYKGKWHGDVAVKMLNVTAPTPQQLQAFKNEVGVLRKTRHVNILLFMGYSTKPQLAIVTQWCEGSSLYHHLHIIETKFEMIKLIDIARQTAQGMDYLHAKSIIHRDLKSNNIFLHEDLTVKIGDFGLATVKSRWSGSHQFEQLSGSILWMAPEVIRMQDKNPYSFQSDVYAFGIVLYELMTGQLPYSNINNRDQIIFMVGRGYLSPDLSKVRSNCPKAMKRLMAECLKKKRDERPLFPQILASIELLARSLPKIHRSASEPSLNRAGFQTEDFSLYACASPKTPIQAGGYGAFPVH

`N#Cc1c(Oc2ccc(F)c(NC(=O)Cc3cccc(C(F)(F)F)c3)c2)ccc2nc(NC(=O)C3CC3)sc12` [TAK-632] gave an IC50 of 0.7 nM.
